The test system of assay [1] is control clone (WT) of human neuroblastoma cell line SK-NBE. Description: Heparan sulfate (HS) immunofluorescence in control (WT) SK-NBE clone. The class given is cell-based. As to conditions: 20 μM, 48 hours.
The subject of assay [2] is NAGLU-silenced clone (cl5) of human neuroblastoma cell line SK-NBE. Description: Immunofluorescence against beta-amyloid peptide 1-42 in NAGLU-silenced SK-NBE clone. The format is cell-based. As to conditions: 20 μM, 48 hours. The method, then: The clone (c15) stably silenced for NAGLU, the causative gene of MPS IIIB, is able to mimic the features of neurodegenerative diseases as it accumulates beta-amyloid fibers in the cytoplasm. In fact, Sanfilippo Syndrome is also defined as “childhood Alzheimer”.
The diseased clone (c15) was grown in the presence of L-DNJ, L-NBDNJ, L-AMPDNM and L-MONDNJ and the corresponding enantiomers D-DNJ, D-NBDNJ, D-AMPDNM and D-MONDNJ at a dosage of 20 μM and after 48 hours were processed by immunofluorescence against the beta-amyloid peptide 1-42. […] On contrary, treatment with the corresponding D-enantiomers has no effect on the reduction of the accumulation of amyloid fibers compared to the untreated clone (mock) (Table 7).

For assay [3] the test system is unchanged. Description: Heparan sulfate (HS) immunofluorescence in NAGLU-silenced SK-NBE clone, Sanfilippo B model. The class given is cell-based. Conditions: 48 hours; for Cells positive for HS (%) / Relative HS fluorescence intensity: cl5 clone, 20 μM; for Effect on HS staining / HS accumulation, in words: clone 5, 20 μM. The text has this:
(§1) To study the effects of the compounds on the lysosomal dysfunctions in a neuronal model of Sanfilippo B disease (MPS IIIB), we recently generated stable clones of the human neuroblastoma cell line SK-NBE silenced for the NAGLU gene causative of MPS IIIB [De Pasquale V, et al. (2021). Biochim Biophys Acta Mol Cell Res. 1868, 119113.]. Mimicking the features of Sanfilippo B disease, silencing of NAGLU causes accumulation of heparan sulfate and accumulation of lysosomes in the cytoplasm of stable SK-NBE clones compared to the control (WT) clone.
Clone 5 was grown in the presence of 20 μM of each L-iminosugar under normal growth conditions and after 48 hours the accumulation of heparan sulfate (HS) was evaluated by immunofluorescence staining for HS.

Assay [4] relates to fibroblasts of patients affected by Sanfilippo A (MPS IIIA). Description: HS and Lamp1 immunofluorescence in Sanfilippo A patient fibroblasts. The format is cell-based, human. Conditions: 20 μM, 48 hours; for Relative fluorescence intensity compared to HDFa, HS / Relative fluorescence intensity compared to HDFa, Lamp1: MPS-IIIA fibroblasts; for Effect on HS and lysosome (Lamp1) accumulation, in words: Sanfilippo A (MPS IIIA) patient fibroblasts. The source says:
(§2) To verify whether the selected iminosugars could exert the same effects also on the fibroblasts of patients affected by Sanfilippo disease, human adult dermal fibroblasts HDFa (purchased from Sigma-Aldrich) were used as control, and fibroblasts of patients affected by Sanfilippo A and B (MPS IIIA and IIIB) were used as disease model.
(§3) The human cell lines, fibroblasts, from patients with MPS (Sanfilippo disease) used in the examples were obtained from the G. Gaslini Institute of Genoa, “Cell Line and DNA Biobank from Patients Affected by Genetic Diseases”-Telethon Genetic Biobank Network—Telethon research service. These cells are classified with identification codes and by type of disease without allowing patient identification. Cells were collected from the patients, at the Gaslini Institute, with informed consent to the collection extended to conservation and its possible use, for diagnosis and/or research purposes according to current legislation as required by the guidelines followed by the Telethon biobanks. The Network operates abiding by the Italian Privacy and Data Protection Laws in force, including: Italian Data Protection Authority, Personal Data Protection Code, Legislative Decree no. 196, 30 Jun. 2003, published in Official Gazette No. 174 of the Italian Republic, 29 Jul. 2003; Italian Data Protection Authority, General Authorization for the processing of genetic data, 24 Jun. 2011, published in Official Gazette No. 159 of Italian Republic, 11 Jul. 2011.
(§4) Cells were cultured in the presence of the selected L-iminosugars at a dosage of 20 μM and after 48 hours were treated for HS and Lamp1 immunofluorescence. Treatment with L-iminosugars had no effect on control HDFa (Table 3).
(§5) Cells were grown in the presence of the iminosugars D-DNJ, D-NBDNJ, D-AMPDNM and D-MONDNJ at the dosage of 20 μM and after 48 hours were treated for HS and Lamp1 immunofluorescence. Treatment with D-iminosugars had no effect on HDFa and fibroblasts of patients affected by Sanfilippo A and B (MPS IIIA and MPS IIIB) both on HS and lysosome accumulation (Table 4).

The test system of assay [5] is HeLa tumor epithelial cells. Description: HeLa cell proliferation assay. The format is cell-based. As to conditions: after 48 hours. The method, then: Furthermore, treatment with the L-deoxyminosugars L-DNJ, L-NBDNJ, L-AMPDNM and L-MONDNJ caused a decrease of the number of HeLa cells after 48 hours as shown by the cell proliferation assay reported in Table 6.
In assay [6] the test system is NAGLU-silenced clone (cl5) of human neuroblastoma cell line SK-NBE. Description: Lamp1 immunofluorescence (lysosomal accumulation) in NAGLU-silenced SK-NBE clone, Sanfilippo B model. The class given is cell-based. Conditions: 48 hours; for Cells positive for Lamp1 (%) / Relative Lamp1 fluorescence intensity: cl5 clone, 20 μM; for Effect on lysosomal enlargement and accumulation (lysosomal phenotype), in words: clone 5, 20 μM.
From the text: as §1
(§6) Therefore, NAGLU-silenced clone (c15) and control clone (WT) were selected to test the effect of L-deoxyminosugars (L-DNJ, L-NBDNJ, L-NNDNJ, L-HPDNJ, L-NPDNJ, L-AMPDNM and L-MONDNJ) in the hydrochloride form on the lysosomal phenotype of our cell model of Sanfilippo B (MPS IIIB).
(§7) Clone 5 was cultured in the presence of 20 μM of each L-deoxyminosugar under normal growth conditions and after 48 hours the lysosomal accumulation was evaluated with immunofluorescence technique by using a specific antibody against Lamp1 (lysosomal marker). […] Furthermore, upon treatment with the active L-deoxyminosugar the lysosomes are no longer concentrated in the perinuclear region of the cells, as occurs in several lysosomal diseases, but they are physiologically distributed throughout the cytoplasm.

Assay [7] relates to human adult dermal fibroblasts HDFa. Put plainly: HS and Lamp1 immunofluorescence in control fibroblasts HDFa. The class given is cell-based. Conditions: 20 μM, 48 hours. The method, then: as §2, §4, §5
For assay [8], the system named is control clone (WT) of human neuroblastoma cell line SK-NBE. Description: Lamp1 immunofluorescence in control (WT) SK-NBE clone. The format is cell-based. As to conditions: 20 μM, 48 hours.
From the text: as §1, §6, §7

In assay [9] the test system is HeLa tumor epithelial cells. Description: HS immunostaining in HeLa cells. As to conditions: 48 hours. The class given is cell-based. How it is done:
To test whether treatment with the selected L-deoxyminosugars (L-DNJ, L-NBDNJ, L-AMPDNM and L-MONDNJ) could interfere with HS synthesis we selected a cell line not mutated for NAGLU and highly decorated by heparan sulfate on the cell membrane. For this purpose, HeLa tumor epithelial cells (purchased from ATCC) were cultured for 48 hours in the presence of the selected L-iminosugars and the amount of HS was evaluated by immunostaining.

Assay [10] has as its system fibroblasts of patients affected by Sanfilippo B (MPS IIIB). Description: HS and Lamp1 immunofluorescence in Sanfilippo B patient fibroblasts. The format is cell-based, human. Conditions: 20 μM, 48 hours; for Relative fluorescence intensity compared to HDFa, HS / Relative fluorescence intensity compared to HDFa, Lamp1: MPS-IIIB fibroblasts; for Effect on HS and lysosome (Lamp1) accumulation, in words: Sanfilippo B (MPS IIIB) patient fibroblasts.
From the text: as §2, §3, §4, §5

Structures can show the parent of a compound that is named as a salt.

Experimental findings from patent publication US20250255856A1, “THERAPEUTIC COMPOSITIONS WITH IMINO SUGARS FOR THE TREATMENT OF DISEASES WITH ACCUMULATION OF HEPARAN SULFATE” (priority 2022, published 2025) are described below.

Turning to `OC[C@@H]1NC[C@@H](O)[C@H](O)[C@H]1O` [L-DNJ•HCl], in assay [1], the “Cells positive for HS (%)” value is recorded as 2.6% and the “Relative HS fluorescence intensity” value is 0.94. In assay [2], the “Relative amyloid fluorescence intensity” value turned out to be 0.01. In assay [3], the “Cells positive for HS (%)” value is reported as 5.1%; the “Relative HS fluorescence intensity” value came out at 1.20; the “Effect on HS staining / HS accumulation, in words” value is reported as “dramatic reduction”. In addition, in [4], the “Relative fluorescence intensity compared to HDFa, HS” value (from here on “Relative fluorescence intensity … HS”) amounted to 1.0; the “Relative fluorescence intensity compared to HDFa, Lamp1” value came out at 1.8; the “Effect on HS and lysosome (Lamp1) accumulation, in words” value (shortened to “Effect on HS and lysosome”) was “strong reduction”. Further, in assay [5], the Cell number is given as 2.9 · 10^5 and the “Effect on the number of HeLa cells, in words” value (“Effect on the number” for short) was “decrease”. For the same compound, in [6], the “Cells positive for Lamp1 (%)” value is given as 25%; the “Relative Lamp1 fluorescence intensity” value is listed as 0.95; the “Effect on lysosomal enlargement and accumulation (lysosomal phenotype), in words” value (“Effect … (lysosomal phenotype), in words” for short) was “dramatic reduction”. Besides, in assay [7], the “Relative fluorescence intensity … HS” value stood at 1.0 and the “Relative fluorescence intensity compared to HDFa, Lamp1” value was found to be 1.0. In [8], the “Cells positive for Lamp1 (%)” value is listed as 2.8% and the “Relative Lamp1 fluorescence intensity” value stood at 1.00. Moreover, in assay [9], the “Effect on HS accumulation on the HeLa cell membrane, in words” value (“Effect on HS accumulation” for short) is reported as “strong reduction” and the “Relative HS fluorescence intensity” value stood at 0.24. In assay [10], the “Relative fluorescence intensity … HS” value was 1.0; the “Relative fluorescence intensity compared to HDFa, Lamp1” value is 1.0; the “Effect on HS and lysosome” value is “strong reduction”.

Regarding `COCCCCCCCCCN1C[C@@H](O)[C@H](O)[C@@H](O)[C@@H]1CO` [L-MONDNJ•HCl, N-methoxynonyl L-DNJ], in [1], the “Cells positive for HS (%)” value came to 2.1% and the “Relative HS fluorescence intensity” value was 0.97. In addition, the “Relative amyloid fluorescence intensity” value in assay [2] was 0.01. In [3], the “Cells positive for HS (%)” value worked out at 4.9%; the “Relative HS fluorescence intensity” value was determined as 1.15; the “Effect on HS staining / HS accumulation, in words” value is listed as “dramatic reduction”. Moreover, in [4], the “Relative fluorescence intensity … HS” value came out at 1.8; the “Relative fluorescence intensity compared to HDFa, Lamp1” value was 2.2; the “Effect on HS and lysosome” value is given as “strong reduction”. Also, in assay [5], the Cell number was 3.1 · 10^5 and the “Effect on the number” value is recorded as “decrease”. Also, in assay [6], the “Cells positive for Lamp1 (%)” value is 21%; the “Relative Lamp1 fluorescence intensity” value was 1.00; the “Effect … (lysosomal phenotype), in words” value was “dramatic reduction”. Moreover, in assay [7], the “Relative fluorescence intensity … HS” value is 1.0 and the “Relative fluorescence intensity compared to HDFa, Lamp1” value stood at 1.0. Further, in [8], the “Cells positive for Lamp1 (%)” value was 2.4% and the “Relative Lamp1 fluorescence intensity” value is given as 1.05. Also, in [9], the “Effect on HS accumulation” value is “strong reduction” and the “Relative HS fluorescence intensity” value turned out to be 0.11. Moreover, in assay [10], the “Relative fluorescence intensity … HS” value is given as 1.7; the “Relative fluorescence intensity compared to HDFa, Lamp1” value was 1.3; the “Effect on HS and lysosome” value was “strong reduction”.

For `OC[C@H]1[C@H](O)[C@@H](O)[C@H](O)CN1CCCCCOCC12CC3C[C@H](C1)C[C@H](C3)C2` [L-AMPDNM•HCl, N-adamantanomethoxypentyl L-DNJ], in [1], the “Cells positive for HS (%)” value was 2.3% and the “Relative HS fluorescence intensity” value is 0.94. Also, in assay [2], the “Relative amyloid fluorescence intensity” value came out at 0.02. Further, in [3], the “Cells positive for HS (%)” value was 5.1%; the “Relative HS fluorescence intensity” value was 1.19; the “Effect on HS staining / HS accumulation, in words” value was “dramatic reduction”. In [4], the “Relative fluorescence intensity … HS” value is recorded as 1.5; the “Relative fluorescence intensity compared to HDFa, Lamp1” value is given as 2.2; the “Effect on HS and lysosome” value was “strong reduction”. Besides, in [5], the Cell number is 3.7 · 10^5 and the “Effect on the number” value was “decrease”. In addition, in assay [6], the “Cells positive for Lamp1 (%)” value was 18%; the “Relative Lamp1 fluorescence intensity” value is given as 0.99; the “Effect … (lysosomal phenotype), in words” value is on record as “dramatic reduction”. Also, in [7], the “Relative fluorescence intensity … HS” value amounted to 1.0 and the “Relative fluorescence intensity compared to HDFa, Lamp1” value was 1.0. Further, in [8], the “Cells positive for Lamp1 (%)” value is listed as 2.5% and the “Relative Lamp1 fluorescence intensity” value is listed as 1.08. For the same compound, in assay [9], the “Effect on HS accumulation” value is given as “strong reduction” and the “Relative HS fluorescence intensity” value is reported as 0.12. In assay [10], the “Relative fluorescence intensity … HS” value was 1.0; the “Relative fluorescence intensity compared to HDFa, Lamp1” value amounted to 1.0; the “Effect on HS and lysosome” value is “strong reduction”.
